Measured values: patent publication US4721718A, “2-[(imidazo[1,2-a]pyridin-3-ylmethyl)sulfinyl]-1H-benzimidazoles useful in the treatment and prevention of ulcers” (G. D. Searle & Co., priority 1986, dated 1988)
pIC50: −log10 of the molar value.

Target: T1, (H^+ +K^+)-ATPase (Canis lupus familiaris, UniProt P50996)
T1 construct: from tissue; host or cells: gastric glandular mucosa of mongrel dogs (microsomes from the 15-30% sucrose interface, lyophilized)
Experiment: Inhibition of (H^+ +K^+)-ATPase from Canine Gastric Mucosa
Assay type: biochemical, canine (mongrel dogs)
Conditions: for pIC50: canine gastric mucosa microsomes, 30 min preincubation at 37°, pH 6.0, K^+-stimulated minus basal activity
Description: The antisecretory activity of the compounds of this invention illustrated in the Examples was tested by the following method.
Inhibition of ([…] +K^+)-ATPase from Canine Gastric Mucosa
Mongrel dogs weighing 15 to 25 kilograms were fasted for twenty-four hours, with water provided ad libitum. The animals were anesthetized with pentobarbital and the stomachs were removed. Subsequent tissue manipulations and subcellular fractionations were performed at 0° to 4° C. After the stomachs were cut open and rinsed with tap water, the antral and cardiac regions were removed and the remaining tissue was rinsed three times in saline. The glandular mucosa was removed mechanically, chopped finely in a medium containing 10 mM Tris hydrochloride (pH 7.4) and 250 mM sucrose, and homogenized. The homogenate was centrifuged at 20,000×g for twenty minutes and the pellet discarded. The supernatant was then centrifuged at 150,000xg for ninety minutes and the supernatant discarded. The pellet was resuspended in the Tris-HCl/sucrose medium by homogenization. Part (2 ml) of the resultant microsomal suspension was layered onto a step gradient consisting of 9 ml of 15% sucrose above 12 ml of 30% sucrose, each sucrose solution being buffered with 10 mM Tris hydrochloride (pH 7.4) containing 0.01% sodium azide. The microsomes retained at the 15-30% sucrose interface, after centrifugation at 250,000×g for sixty minutes, were used as the source of (H^+ +K^+)-ATPase. Microsomal preparations were lyophilized, a process that assured potassium ion permiability, and stored at -10° until used.
The (H^+ +K^+)-ATPase activity for each test compound was determined, in duplicate, by measuring the release of inorganic phosphate, which was assayed according to the method of J. ChandraRajan and L. Klein., Anal. Biochem., 72. 407-412 (1976). […] At least fifteen minutes later, the optical absorbance at 870 nm (which was proportional to inorganic phosphate concentration up to 100 nmoles per tube, as determined by a standard curve) was obtained. […]

T1 sequence (P50996 whole entry): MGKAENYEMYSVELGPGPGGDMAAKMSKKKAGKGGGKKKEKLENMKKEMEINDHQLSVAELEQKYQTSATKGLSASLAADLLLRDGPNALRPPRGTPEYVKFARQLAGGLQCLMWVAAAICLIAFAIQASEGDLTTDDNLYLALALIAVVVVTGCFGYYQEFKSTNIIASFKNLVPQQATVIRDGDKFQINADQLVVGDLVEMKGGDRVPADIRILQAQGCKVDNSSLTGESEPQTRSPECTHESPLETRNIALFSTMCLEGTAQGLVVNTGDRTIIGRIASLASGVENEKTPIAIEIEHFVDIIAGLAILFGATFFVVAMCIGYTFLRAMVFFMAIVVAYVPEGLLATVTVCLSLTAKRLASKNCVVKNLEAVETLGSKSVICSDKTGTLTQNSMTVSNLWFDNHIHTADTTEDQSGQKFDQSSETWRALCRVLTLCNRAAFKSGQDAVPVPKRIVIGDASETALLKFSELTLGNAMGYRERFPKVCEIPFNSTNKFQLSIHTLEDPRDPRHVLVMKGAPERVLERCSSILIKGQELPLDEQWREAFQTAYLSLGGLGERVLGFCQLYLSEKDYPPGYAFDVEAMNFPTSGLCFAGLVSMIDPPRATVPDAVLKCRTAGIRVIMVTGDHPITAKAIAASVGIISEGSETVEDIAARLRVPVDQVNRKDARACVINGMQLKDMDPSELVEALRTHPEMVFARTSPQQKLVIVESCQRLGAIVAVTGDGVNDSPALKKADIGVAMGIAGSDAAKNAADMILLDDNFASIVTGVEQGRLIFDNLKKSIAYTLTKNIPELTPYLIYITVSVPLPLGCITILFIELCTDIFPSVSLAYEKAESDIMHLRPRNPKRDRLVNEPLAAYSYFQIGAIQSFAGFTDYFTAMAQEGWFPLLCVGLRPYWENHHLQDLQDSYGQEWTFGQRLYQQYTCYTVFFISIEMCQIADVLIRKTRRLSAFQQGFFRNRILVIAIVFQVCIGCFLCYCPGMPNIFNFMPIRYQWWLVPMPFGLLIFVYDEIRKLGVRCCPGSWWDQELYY
T1 sequence (P33704 whole entry partner): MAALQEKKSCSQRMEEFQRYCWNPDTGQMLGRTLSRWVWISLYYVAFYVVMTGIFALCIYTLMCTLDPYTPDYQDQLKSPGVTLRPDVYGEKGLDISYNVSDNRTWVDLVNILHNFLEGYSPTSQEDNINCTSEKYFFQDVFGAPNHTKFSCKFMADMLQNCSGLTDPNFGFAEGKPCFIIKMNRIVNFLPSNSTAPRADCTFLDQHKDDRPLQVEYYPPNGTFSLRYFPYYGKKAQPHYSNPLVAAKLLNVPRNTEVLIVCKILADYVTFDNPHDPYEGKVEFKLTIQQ

Row | pIC50 | Structure (SMILES) | inhibition of (H^+ +K^+)-ATPase activity (in words) (as shown in Table I)
1 | 5.41 | [O-][S+](Cc1cnc2ccccn12)c1nc2ccccc2[nH]1 (stereo not drawn) [Example 2, 2-[(imidazo[1,2-a]pyridin-3-ylmethyl)sulfinyl]-1H-benzimidazole 1/4 hydrate] | 
2 | < 4.00 | [O-][S+](Cc1cn2ccccc2n1)c1nc2ccccc2[nH]1 (stereo not drawn) [Example 4, 2-[(imidazo[1,2-a]pyridin-2-ylmethyl)sulfinyl]-1H-benzimidazole] | not inhibiting (H^+ +K^+)-ATPase activity
